# Source: patent publication US20170190671A1, “BIS(ARYL)CATECHOL DERIVATIVES AS HERBICIDES” (E I DU PONT DE NEMOURS AND COMPANY, priority 2014, published 2017)
# Tests used:
# Test in all cases: Test C preemergence
# Type in all cases: in vivo
# [1] = test system: giant foxtail (Setaria faberii); details: scale 0 to 100; for pest or weed control at 31 g/ha / pest or weed control at 62 g/ha / pest or weed control at 125 g/ha / pest or weed control at 16 g/ha: Setaria faberi, pre-emergence, 336 h, read-out: Plant response rating, Foxtail, Giant; for pest or weed control at 16 g/ha: 16 g ai/ha
# Source text: (§1) Seeds of plant species selected from blackgrass (Alopecurus myosuroides), Italian ryegrass (Lolium multiflorum), winter wheat (Triticum aestivum), galium (catchweed bedstraw, Galium aparine), corn (Zea mays), large (Lg) crabgrass (Digitaria sanguinalis), giant foxtail (Setaria faberii), johnsongrass (Sorghum halepense), lambsquarters (Chenopodium album), morningglory (Ipomoea coccinea), yellow nutsedge (Cyperus esculentus), pigweed (Amaranthus retroflexus), ragweed (common ragweed, Ambrosia elatior), soybean (Glycine max), barnyardgrass (Echinochloa crus-galli), oilseed rape (Brassica napus), waterhemp (common waterhemp, Amaranthus rudis), and velvetleaf (Abutilon theophrasti) were planted into a blend of loam soil and sand and treated preemergence with test chemicals formulated in a non-phytotoxic solvent mixture which included a surfactant.
# (§2) At the same time, plants selected from these crop and weed species and also chickweed (common chickweed, Stellaria media), kochia (Kochia scoparia), and wild oat (Avena fatua), were planted in pots containing Redi-Earth® planting medium (Scotts Company, 14111 Scottslawn Road, Marysville, Ohio 43041) comprising spaghnum peat moss, vermiculite, wetting agent and starter nutrients and treated with postemergence applications of test chemicals formulated in the same manner. Plants ranged in height from 2 to 18 cm (1- to 4-leaf stage) for postemergence treatments. Treated plants and controls were maintained in a greenhouse for 13 to 15 days, after which time all species were compared to controls and visually evaluated. Plant response ratings, summarized in Table C, are based on a scale of 0 to 100 where 0 is no effect and 100 is complete control. A dash (-) response means no test result.
# [2] = test system: winter wheat (Triticum aestivum); details: scale 0 to 100; for plant injury at 31 g/ha / plant injury at 62 g/ha / plant injury at 125 g/ha / plant injury at 16 g/ha: Triticum aestivum, pre-emergence, 336 h, read-out: Plant response rating, Wheat; for plant injury at 16 g/ha: 16 g ai/ha
# Source text: as §1, §2
# [3] = test system: oilseed rape (Brassica napus); details: scale 0 to 100; for plant injury at 31 g/ha / plant injury at 62 g/ha / plant injury at 125 g/ha / plant injury at 16 g/ha: Brassica napus, pre-emergence, read-out: Plant response rating, Oilseed Rape; for plant injury at 16 g/ha: 16 g ai/ha
# Source text: as §1, §2
# [4] = test system: large (Lg) crabgrass (Digitaria sanguinalis); details: scale 0 to 100; for pest or weed control at 31 g/ha / pest or weed control at 62 g/ha / pest or weed control at 125 g/ha / pest or weed control at 16 g/ha: Digitaria sanguinalis, pre-emergence, 336 h, read-out: Plant response rating, Crabgrass, Large; for pest or weed control at 16 g/ha: 16 g ai/ha
# Source text: as §1, §2
Structure (SMILES),"pest or weed control at 31 g/ha ([1]; 31 g ai/ha, preemergence) [%]","pest or weed control at 62 g/ha ([1]; 62 g ai/ha, preemergence) [%]","pest or weed control at 125 g/ha ([1]; 125 g ai/ha, preemergence) [%]",pest or weed control at 16 g/ha ([1]; Preemergence) [%],"plant injury at 31 g/ha ([2]; 31 g ai/ha, preemergence) [%]","plant injury at 62 g/ha ([2]; 62 g ai/ha, preemergence) [%]","plant injury at 125 g/ha ([2]; 125 g ai/ha, preemergence) [%]",plant injury at 16 g/ha ([2]; Preemergence) [%],"plant injury at 31 g/ha ([3]; 31 g ai/ha, preemergence) [%]","plant injury at 62 g/ha ([3]; 62 g ai/ha, preemergence) [%]","plant injury at 125 g/ha ([3]; 125 g ai/ha, preemergence) [%]","pest or weed control at 31 g/ha ([4]; 31 g ai/ha, preemergence) [%]","pest or weed control at 62 g/ha ([4]; 62 g ai/ha, preemergence) [%]","pest or weed control at 125 g/ha ([4]; 125 g ai/ha, preemergence) [%]",pest or weed control at 16 g/ha ([4]; Preemergence) [%],plant injury at 16 g/ha ([3]; Preemergence) [%],other results
"N#Cc1cccc(Oc2ncc(Br)cn2)c1Oc1ncc(Cl)cn1 [Compound 5, 3-[(5-bromo-2-pyrimidinyl)oxy]-2-[(5-chloro-2-pyrimidinyl)oxy]benzonitrile]",80,100,100,30,0,5,35,0,70,98,100,98,100,100,70,–,–
N#Cc1cccc(Oc2ncc(Cl)cn2)c1Oc1ccc(Br)cn1 [Compound 15],80,100,100,70,0,5,40,0,98,100,100,100,100,100,75,25,–
"Clc1cnc(Oc2cccc(Br)c2Oc2ncc(Cl)cn2)nc1 [Compound 19, 2,2′-[[3-bromo-1,2-phenylene]bis(oxy)]bis[5-chloropyrimidine]]",100,100,100,60,25,40,85,0,85,98,100,100,100,100,98,30,–
FC(F)(F)c1cnc(Oc2c(Br)cccc2Oc2ncc(Cl)cn2)nc1 [Compound 24],–,–,–,–,–,–,–,–,–,–,–,–,–,–,–,–,"Plant response rating, Foxtail, Giant ([1]; 31 g ai/ha, Preemergence): 98; Plant response rating, Foxtail, Giant ([1]; 62 g ai/ha, Preemergence): 98; Plant response rating, Foxtail, Giant ([1]; 125 g ai/ha, Preemergence): 100; Plant response rating, Foxtail, Giant ([1]; 250 g ai/ha, preemergence): 100; Plant response rating, Wheat ([2]; 31 g ai/ha, Preemergence): 15; Plant response rating, Wheat ([2]; 62 g ai/ha, Preemergence): 30; Plant response rating, Wheat ([2]; 125 g ai/ha, Preemergence): 60; Plant response rating, Wheat ([2]; 250 g ai/ha, preemergence): 90; Plant response rating, Oilseed Rape ([3]; 31 g ai/ha, Preemergence): 80; Plant response rating, Oilseed Rape ([3]; 62 g ai/ha, Preemergence): 100; Plant response rating, Oilseed Rape ([3]; 125 g ai/ha, Preemergence): 100; Plant response rating, Oilseed Rape ([3]; 250 g ai/ha, preemergence): 100; Plant response rating, Crabgrass, Large ([4]; 31 g ai/ha, Preemergence): 100; Plant response rating, Crabgrass, Large ([4]; 62 g ai/ha, Preemergence): 100; Plant response rating, Crabgrass, Large ([4]; 125 g ai/ha, Preemergence): 100; Plant response rating, Crabgrass, Large ([4]; 250 g ai/ha, preemergence): 100"
